Experimental data published in PubChem BioAssay AID1919017 (Molecular Pharmacology Branch, DTP, NCI, 2023).

System: SW1271 complex spheroids with HUVEC/MSC, growth, % test/control
Experiment: Anticancer human tumor SW1271 cell line growth inhibition [AhR];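 note: spheroids exposed to agents for 7 days before readout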
Settings: for IC50: curve of first compound; for viability, T/C: stronger effect = lower value
How it was run: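 Spheroids combined tumor cells with HUVEC endothelial cells and human MSCs as stroma. AhR antagonists were paired with standard or investigational drugs, each dosed in half-log steps down from near clinical Cmax, or from 10 microM where Cmax was unknown.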

[1] = second compound 0.1 µM, first compound 0.00316 µM
[2] = second compound 0.1 µM, first compound 0.01 µM
[3] = second compound 0.1 µM, first compound 0.0316 µM
[4] = second compound 0.1 µM, first compound 0.1 µM
[5] = second compound 0.316 µM, first compound 0.00316 µM
[6] = second compound 0.316 µM, first compound 0.01 µM
[7] = second compound 0.316 µM, first compound 0.0316 µM
[8] = second compound 0.316 µM, first compound 0.1 µM
[9] = second compound 1 µM, first compound 0.00316 µM
[10] = second compound 1 µM, first compound 0.01 µM
[11] = second compound 1 µM, first compound 0.0316 µM
[12] = second compound 1 µM, first compound 0.1 µM
[13] = second compound 3.16 µM, first compound 0.00316 µM
[14] = second compound 3.16 µM, first compound 0.01 µM
[15] = second compound 3.16 µM, first compound 0.0316 µM
[16] = second compound 3.16 µM, first compound 0.1 µM
[17] = second compound 10 µM, first compound 0.00316 µM
[18] = second compound 10 µM, first compound 0.01 µM
[19] = second compound 10 µM, first compound 0.0316 µM
[20] = second compound 10 µM, first compound 0.1 µM
[21] = second compound 0.1 µM, first compound 0.316 µM
[22] = second compound 0.1 µM, first compound 1 µM
[23] = second compound 0.1 µM, first compound 3.16 µM
[24] = second compound 0.1 µM, first compound 10 µM
[25] = second compound 0.316 µM, first compound 0.316 µM
[26] = second compound 0.316 µM, first compound 1 µM
[27] = second compound 0.316 µM, first compound 3.16 µM
[28] = second compound 0.316 µM, first compound 10 µM
[29] = second compound 1 µM, first compound 0.316 µM
[30] = second compound 1 µM, first compound 1 µM
[31] = second compound 1 µM, first compound 3.16 µM
[32] = second compound 1 µM, first compound 10 µM
[33] = second compound 3.16 µM, first compound 0.316 µM
[34] = second compound 3.16 µM, first compound 1 µM
[35] = second compound 3.16 µM, first compound 3.16 µM
[36] = second compound 3.16 µM, first compound 10 µM
[37] = second compound 10 µM, first compound 0.316 µM
[38] = second compound 10 µM, first compound 1 µM
[39] = second compound 10 µM, first compound 3.16 µM
[40] = second compound 10 µM, first compound 10 µM

Structure (SMILES)	IC50 (second compound 0.1 µM)	IC50 (second compound 0.316 µM)	IC50 (second compound 1 µM)	IC50 (second compound 3.16 µM)	IC50 (second compound 10 µM)	viability, T/C [3]	viability, T/C [4]	viability, T/C [7]	viability, T/C [8]	viability, T/C [11]	viability, T/C [12]	viability, T/C [15]	viability, T/C [16]	viability, T/C [19]	viability, T/C [20]	viability, T/C [21]	viability, T/C [22]	viability, T/C [25]	viability, T/C [26]	viability, T/C [29]	also measured
CC[C@@]1(O)C(=O)OCc2c1cc1n(c2=O)Cc2cc3c(CN(C)C)c(O)ccc3nc2-1 + Cc1ccccc1N=Nc1ccc(NC(=O)c2ccnn2C)c(C)c1	> 100 nM	> 100 nM	> 100 nM	> 100 nM	> 100 nM	57.5%	53.1%	69.2%	63.9%	63.8%	57.3%	78.2%	67.4%	60.8%	65.5%	–	–	–	–	–	viability, T/C (second compound 0.1 µM, first compound 0.000316 µM): 81.8%; viability, T/C (second compound 0.1 µM, first compound 0.001 µM): 98.9%; viability, T/C [1]: 69.4%; viability, T/C [2]: 67.8%; viability, T/C (second compound 0.316 µM, first compound 0.000316 µM): 89.4%; viability, T/C (second compound 0.316 µM, first compound 0.001 µM): 92%; viability, T/C [5]: 79.9%; viability, T/C [6]: 65.8%; viability, T/C (second compound 1 µM, first compound 0.000316 µM): 77.9%; viability, T/C (second compound 1 µM, first compound 0.001 µM): 83.4%; viability, T/C [9]: 88%; viability, T/C [10]: 80%; viability, T/C (second compound 3.16 µM, first compound 0.000316 µM): 84.5%; viability, T/C (second compound 3.16 µM, first compound 0.001 µM): 86.4%; viability, T/C [13]: 88.7%; viability, T/C [14]: 68.2%; viability, T/C (second compound 10 µM, first compound 0.000316 µM): 86.7%; viability, T/C (second compound 10 µM, first compound 0.001 µM): 83%; viability, T/C [17]: 87.2%; viability, T/C [18]: 62.1%
COc1cc(C2c3cc4c(cc3C(OC3OC5COC(C)OC5C(O)C3O)C3COC(=O)C23)OCO4)cc(OC)c1O (stereo not given) + Cc1ccccc1N=Nc1ccc(NC(=O)c2ccnn2C)c(C)c1	266 nM	267 nM	419 nM	1580 nM	1020 nM	75.4%	58.1%	54.1%	53.9%	88.8%	67.5%	66.8%	80.4%	62%	61.7%	44.1%	50.4%	51.9%	46.1%	49.6%	viability, T/C [23]: 46.9%; viability, T/C [24]: 45.6%; viability, T/C [27]: 40.4%; viability, T/C [28]: 44.7%; viability, T/C [30]: 44.1%; viability, T/C [31]: 47.4%; viability, T/C [32]: 35.3%; viability, T/C [33]: 53.1%; viability, T/C [34]: 49.4%; viability, T/C [35]: 51.2%; viability, T/C [36]: 34%; viability, T/C [37]: 54%; viability, T/C [38]: 50.2%; viability, T/C [39]: 43.8%; viability, T/C [40]: 37.2%
COc1cccc2c1C(=O)c1c(O)c3c(c(O)c1C2=O)CC(O)(C(=O)CO)CC3OC1CC(N)C(O)C(C)O1 (stereo not given) + Cc1ccccc1N=Nc1ccc(NC(=O)c2ccnn2C)c(C)c1	< 31.6 nM	< 31.6 nM	152 nM	115 nM	128 nM	39.7%	52.7%	52.6%	45.9%	56.4%	58.8%	54.6%	49.7%	57.6%	50.4%	32.5%	3%	34.7%	2.92%	36.6%	viability, T/C [23]: 3.18%; viability, T/C [24]: 2.71%; viability, T/C [27]: 2.63%; viability, T/C [28]: 3.51%; viability, T/C [30]: 3.45%; viability, T/C [31]: 3.18%; viability, T/C [32]: 4.18%; viability, T/C [33]: 34.9%; viability, T/C [34]: 2.56%; viability, T/C [35]: 3.52%; viability, T/C [36]: 3.41%; viability, T/C [37]: 35.4%; viability, T/C [38]: 1.26%; viability, T/C [39]: 3.22%; viability, T/C [40]: 3.53%
Nc1ccn(C2OC(CO)C(O)C2(F)F)c(=O)n1 (stereo not given) + Cc1ccccc1N=Nc1ccc(NC(=O)c2ccnn2C)c(C)c1	< 31.6 nM	66.1 nM	< 31.6 nM	< 31.6 nM	335 nM	39.2%	48.4%	54.6%	49.8%	41.1%	50.1%	43.2%	51%	56.5%	57.3%	47.2%	52.8%	41.8%	39.5%	56.7%	viability, T/C [23]: 41.3%; viability, T/C [24]: 37.2%; viability, T/C [27]: 39%; viability, T/C [28]: 45.1%; viability, T/C [30]: 41.5%; viability, T/C [31]: 45.6%; viability, T/C [32]: 40.3%; viability, T/C [33]: 40.7%; viability, T/C [34]: 44.2%; viability, T/C [35]: 39.7%; viability, T/C [36]: 48.5%; viability, T/C [37]: 50.2%; viability, T/C [38]: 43.1%; viability, T/C [39]: 44.7%; viability, T/C [40]: 50.4%
Nc1ncn(C2CC(O)C(CO)O2)c(=O)n1 (stereo not given) + Cc1ccccc1N=Nc1ccc(NC(=O)c2ccnn2C)c(C)c1	> 1000 nM	> 1000 nM	> 1000 nM	> 1000 nM	> 1000 nM	64.3%	60.1%	69%	76.1%	72.7%	62.9%	79.9%	63.7%	66.1%	71.5%	63%	49.4%	72%	59.6%	75.4%	viability, T/C [1]: 81.5%; viability, T/C [2]: 86.8%; viability, T/C [5]: 82.2%; viability, T/C [6]: 66.9%; viability, T/C [9]: 79.8%; viability, T/C [10]: 71.3%; viability, T/C [30]: 60.2%; viability, T/C [13]: 72.7%; viability, T/C [14]: 83.2%; viability, T/C [33]: 64.1%; viability, T/C [34]: 59%; viability, T/C [17]: 76.1%; viability, T/C [18]: 65.5%; viability, T/C [37]: 65%; viability, T/C [38]: 69.9%
